Like-named read-outs stand apart in the source and are kept apart here.
Experiment: Single-dose administration to rodents (CSI, SC, IV), plasma pharmacokinetics
Type: in vivo, Sprague-Dawley albino rats
Conditions: for bioavailability / AUC(0-t) / AUC(0-inf) / Cmax / half-life / Tmax: rat, in vivo; for bioavailability: read-out: FR (%) relative bioavailability; for half-life: read-out: t1/2, terminal (converted)
Description: T1249 was administered to Sprague-Dawley albino rats in a single dose administered by continuous subcutaneous infusion (SCI), subcutaneous (SC) injection or intravenous (IV) injection. Each treatment group consisted of nine rats per sex per group. […] One group received 50 mM carbonate-bicarbonate, pH 8.5, administered as a control. The peptides were given for 12 hours via a polyvinyl chloride/polyethylene catheter surgically implanted subcutaneously in the nape of the neck. […] The actual milligram amount of T1249 was calculated using the peptide content that was determined for the batch administrated.
Endpoints for analysis included cageside observations (twice daily for mortality and moribundity), clinical observations, clinical laboratory parameters, body weight and necropsy. Blood samples were obtained by a sparse sampling technique over a 12 hour time period from three rats per sex per group at each of the following times: 0.5, 1, 2, 4, 6, 8, […], and 12 hours after dose administration. Sample analysis was performed using a PcAb ECLIA assay (Blackburn, G. et al., 1991, Clin. Chem. 37:1534-1539; Deaver, D., 1995, Nature 377:758).

For `CC[C@H](C)[C@H](NC(=O)[C@H](CCC(N)=O)NC(=O)[C@H](C)NC(=O)[C@H](CCC(N)=O)NC(=O)[C@H](CCC(=O)O)NC(=O)[C@H](CC(C)C)NC(=O)[C@H](CC(C)C)NC(=O)[C@H](C)NC(=O)[C@@H](NC(=O)[C@@H](NC(=O)[C@H](CCCCN)NC(=O)[C@H](CCC(N)=O)NC(=O)[C@H](CCC(=O)O)NC(=O)[C@H](Cc1c[nH]c2ccccc12)NC(=O)[C@H](CCC(=O)O)NC(=O)[C@H](CCC(N)=O)NC(=O)[C@H](Cc1c[nH]c2ccccc12)NC(C)=O)[C@@H](C)CC)[C@@H](C)O)C(=O)N[C@@H](CCC(N)=O)C(=O)N[C@@H](CCC(N)=O)C(=O)N[C@@H](CCC(=O)O)C(=O)N[C@@H](CCCCN)C(=O)N[C@@H](CC(N)=O)C(=O)N[C@@H](CCC(=O)O)C(=O)N[C@@H](Cc1ccc(O)cc1)C(=O)N[C@@H](CCC(=O)O)C(=O)N[C@@H](CC(C)C)C(=O)N[C@@H](CCC(N)=O)C(=O)N[C@@H](CCCCN)C(=O)N[C@@H](CC(C)C)C(=O)N[C@@H](CC(=O)O)C(=O)N[C@@H](CCCCN)C(=O)N[C@@H](Cc1c[nH]c2ccccc12)C(=O)N[C@@H](C)C(=O)N[C@@H](CO)C(=O)N[C@@H](CC(C)C)C(=O)N[C@@H](Cc1c[nH]c2ccccc12)C(=O)N[C@@H](CCC(=O)O)C(=O)N[C@@H](Cc1c[nH]c2ccccc12)C(=O)N[C@@H](Cc1ccccc1)C(N)=O` [T1249], the “time to steady-state plasma peptide concentrations” value (CSI) was “approximately four hours”, the “dose proportionality of Cpss and AUC” value (CSI, 0.5 to 6.5 mg/kg) was “linear pharmacokinetics” and the “dose dependence of exposure” value (SC injection) was “not dose-dependent”. For the same compound, the “changes in body weight, physical observations, hematology and clinical chemistry parameters or macroscopic pathology” value (all dose groups) was “no changes”, the “dose dependence of pharmacokinetics” value (bolus IV injection) was “linear dose-dependent pharmacokinetics” and the bioavailability (SC 1.2 mg/kg relative to IV 1.5 mg/kg) was 73%. It also gave a bioavailability (SC 15 mg/kg relative to IV 5 mg/kg) of 30%, an AUC(0-t) (CSI, 0.5 mg/kg) of 7990 ng·h/mL and an AUC(0-t) (CSI, 2.0 mg/kg) of 25900 ng·h/mL. It also gave an AUC(0-t) (CSI, 6.5 mg/kg) of 120000 ng·h/mL, an AUC(0-inf) (IV 1.5 mg/kg) of 47100 ng·h/mL and an AUC(0-t) (IV 1.5 mg/kg) of 45600 ng·h/mL. The Cmax (IV 1.5 mg/kg) was 15700 ng/mL, the half-life (IV 1.5 mg/kg) was 2.46 h and the AUC(0-inf) (IV 5.0 mg/kg) was 120000 ng·h/mL. The AUC(0-t) (IV 5.0 mg/kg) was 118000 ng·h/mL, the Cmax (IV 5.0 mg/kg) was 46300 ng/mL and the half-life (IV 5.0 mg/kg) was 1.86 h. For the same compound, the AUC(0-inf) (SC 1.2 mg/kg) was 27600 ng·h/mL, the AUC(0-t) (SC 1.2 mg/kg) was 27000 ng·h/mL and the Cmax (SC 1.2 mg/kg) was 6370 ng/mL. For the same compound, the Tmax (SC 1.2 mg/kg) was 1.09 h, the half-life (SC 1.2 mg/kg) was 2.02 h and the AUC(0-inf) (SC 15 mg/kg) was 110000 ng·h/mL. It also gave an AUC(0-t) (SC 15 mg/kg) of 107000 ng·h/mL, a Cmax (SC 15 mg/kg) of 21500 ng/mL and a Tmax (SC 15 mg/kg) of 1.88 h. For the same compound, the half-life (SC 15 mg/kg) was 2 h.
